Assays:
Jurkat.LC13 line = test: Activation of control Jurkat.LC13 line in the presence of C1R.HLA-B8 cells; assay type: cell-based, human
Source text: Next, to formally establish whether 7-hydroxy-6-methyl-8-ribityl lumazine and/or its precursor, 6,7-dimethyl-8-ribityl lumazine, could activate MAIT cells, both compounds were chemically synthesized their ability to enable MR1 refolding and to activate Jurkat.MAIT cells and human MAIT cells from peripheral blood tested. […] Thus, direct precursors of riboflavin biosynthesis activate MAIT cells.

Jurkat.MAIT cells = test: Activation of Jurkat.MAIT cells (CD69) with C1R antigen presenting cells expressing MR1; assay type: cell-based, human
Description: Jurkat cells transduced with a MAIT TCR comprising the TRAV1-2+TRAJ33 invariant α chain, and a TRBV6-1 β chain were tested for activation by addition of Salmonella supernatant to C1R antigen presenting cells expressing MR1 for 16 hours. Jurkat.MAIT cells were subsequently stained with PE-conjugated anti-CD3, and APC-conjugated anti-CD69 antibodies before analysis by flow cytometry. Activation of Jurkat.MAIT cells was measured by an increase in surface CD69 expression. Compounds to be tested for the ability to activate Jurkat.MAIT cells were tested alongside Salmonella supernatant.
A biological assay for the activation of MAIT T cell receptor (TCR)-expressing T cell lines (into which genes encoding the MAIT TCR alpha and beta chains had been introduced), by antigen presenting cells (expressing MR1 on the cell surface) infected with the bacterium Salmonella typhimurium has been established. This assay measures the increase in expression of the cell surface activation marker, CD69, upon activation of MAIT T cells.

[1] = system: human MAIT cells from peripheral blood; test: Activation of primary MAIT cells from PBMCs (CD69, IFN-γ, TNF-α); assay type: cell-based; details: PBMCs with C1R cells expressing MR1
Description: PBMCs from a healthy donor were mixed with C1R-huMR1 cells (10^5 each/well). Salmonella SL1344 supernatant (2 μl) from cultures grown in LB supplemented with 25 μg/ml streptomycin (Sigma) for 4 hr at 37° C., or compounds (35A, 36A, 48G: 25 μg/ml final, A-6FP: 10 μM final) or PMA (2 ng/ml+ionomycin (1 ng/ml) added in a total volume of 220 μl RF-10, and incubated overnight at 37° C. Cells were stained with anti-CD3-PE-Cy7 (eBioscience, 20 μg/ml), anti-CD4-APC-Cy7 (Biolegend, 1.7 μg/ml), anti-CD161-APC (Miltenyi Biotec, 1:50), FITC-conjugated D5 (anti-MAIT TCR, 10 μg/ml) and either anti-CD69-PE (BD Biosciences 1:50), anti-IFNγ-PE (BD Pharmingen 10 μg/ml) or anti-TNFα-PE (BD Pharmingen 10 μg/ml), and analyzed by flow cytometry using a Canto II cytometer and Diva software. For intracellular cytokine staining, brefeldin A (10 μg/ml) was added to the assay after the first 1 hr and the incubation allowed to proceed overnight. Cells were fixed with 1% parformaldehyde after staining for surface markers and permeabilised with 1% saponin during cytokine stains. MAIT cells were defined as CD3^+, CD4^−, CD161^+, D5^+ after gating on PBMCs using FSC and SSC.
PBMCs from a healthy donor were mixed with C1R cells expressing MR1 (10^5 each/well). Salmonella SL1344 supernatant (2 μl) from cultures grown in LB supplemented with 25 μg/ml streptomycin (Sigma) for 4 hr at 37° C., or compounds (RL-6,7-diMe, RL-6-Me-7-OH, 6FP: 76.2 μM final, rRL-6-HM: 0.152 μM final) or PMA (2 ng/ml+ionomycin (1 ng/ml) added in a total volume of 220 μl RF-10, and incubated overnight at 37° C. Cells were stained with anti-CD3-PE-Cy7 (eBioscience, 20 μg/ml), anti-CD4-APC-Cy7 (Biolegend, 1.7 μg/ml), anti-CD161-APC (Miltenyi Biotec, 1:50), FITC-conjugated D5 (anti-MAIT TCR, 10 μg/ml) and either anti-CD69-PE (BD Biosciences 1:50), anti-IFNγ-PE (BD Pharmingen 10 μg/ml) or anti-TNFα-PE (BD Pharmingen 10 μg/ml), and analyzed by flow cytometry using a Canto II cytometer and Diva software. […] CD69 expression was analysed by flow cytometry. […]

MR1 = target: T1, MR1 (Homo sapiens, UniProt Q95460); test: Refolding of denatured MR1 and β2m with ligands; assay type: binding; details: substance added to MR1/β2m refold
T1 construct: soluble human MR1 (residues 1-270 of the mature, leaderless protein); made in house
Description: Genes encoding soluble human MR1 (residues 1-270 of the mature, leaderless protein, lacking the transmembrane and cytoplasmic domains); or human β2m (mature, leaderless protein) were expressed for four hours in BL21 E. coli following induction with 1 mM isopropyl β-D-1-thiogalactopyranoside. E. coli were pelleted and resuspended in a buffer containing 50 mM Tris, 25% (w/v) sucrose, 1 mM EDTA, 10 mM DTT pH 8.0. Inclusion body protein was then extracted by lysis of bacteria in a buffer containing 50 mM Tris pH 8.0, 1% (w/v) Triton X-100, 1% (w/v) sodium deoxycholate, 100 mM NaCl, 10 mM DTT, 5 mM MgCl2, and 1 mg DnaseI per liter of starting culture; and subsequent steps involved homogenization with a polytron homogenizer, centrifugation, and washing inclusion body protein sequentially with firstly a buffer containing 50 mM Tris pH 8, […], 100 mM NaCl, 1 mM EDTA, 1 mM DTT, and secondly a buffer containing 50 mM Tris pH 8.0, 1 mM EDTA, 1 mM DTT. Inclusion body protein was then resuspended in a buffer containing 20 mM Tris pH 8.0, 8 M urea, 0.5 mM EDTA, 1 mM DTT, and following centrifugation the supernatant containing solubilized, denatured inclusion body protein was collected and stored at −80° C.
2 mg of 6-formyl pterin, 56 mg of denatured inclusion body MR1 protein, and 28 mg of β2m protein were added to a 400 ml refold buffer solution containing 0.1 M Tris pH 8.5, 2 mM EDTA, 0.4 M arginine, 0.5 mM oxidized glutathione, 5 mM reduced glutathione. Variably, 5M urea was either present or absent. Following an overnight incubation at 4° C., the refold buffer was dialysed against 3 changes of buffer containing 10 mM Tris, pH8.0 over a period of 24 hours. Refolded MR1-β2m-ligand complex was then purified by sequential DEAE (GE Healthcare) anion exchange, S75 16/60 (GE Healthcare) gel filtration, and MonoQ (GE Healthcare) anion exchange chromatography.

[2] = system: Jurkat cells expressing a conventional T cell receptor; test: Control: inhibition of activation of Jurkat cells expressing a conventional T cell receptor by viral peptide-classical class I complexes; assay type: cell-based, human; details: antigen presenting cells displaying viral peptide-classical class I complexes
Source text: Thus, 6-formyl pterin has been identified as a potential antagonist compound, capable of blocking activation of MAIT cells by bacterial activating ligands.

MAIT TCR-BW hybridomas = test: MR1 tetramer staining of MAIT TCR-BW hybridomas; assay type: cell-based; details: hybridomas from mouse Vα19iTG splenocytes fused with BW cell line
Source text: (§1) Wild-type human MR1 containing a C-terminal cysteine can be refolded with the addition of 5-amino-6-D-ribitylamino-uracil and pyruvaldehyde, using the standard refolding conditions described above, and then purified using the standard methods also described above. MR1 refolded in this way has rRL-6-CH2OH bound as determined by X-ray crystallography structural studies, and by electrospray ionization time-of-flight (ESI TOF) mass spectrometry. […] Excess biotin is removed by passing biotinylated protein through an S200 10/300 GL (Healthcare) gel filtration column in Tris buffered saline (pH 8.0), prior to formation of tetramers by addition to PE Streptavidin (#554061, BD Pharmingen). […] In the same manner human MR1 containing a C-terminal cysteine can be refolded with the addition of 5-amino-6-D-ribitylamino-uracil, and subsequently purified by fast protein liquid chromatography (FPLC) to yield MR1 refolded with a novel ribityllumazine metabolite, reduced 7-hydroxy-ribityllumazine (rRL-7-OH). The identity of rRL-7-OH bound to MR1 was confirmed by ESI TOF mass spectrometry, and by determining its structure using X-ray crystallography. The identity of rRL-7-OH bound to MR1 was also confirmed by refolding wild-type MR1 with 5-amino-6-D-ribitylamino-uracil and ^13C-glycolaldehyde to yield MR1-^13C-rRL-7-OH.

control BW cells = test: MR1 tetramer staining of control BW cells; assay type: cell-based, mouse
Source text: as §1

T1 sequence (Q95460 23-292): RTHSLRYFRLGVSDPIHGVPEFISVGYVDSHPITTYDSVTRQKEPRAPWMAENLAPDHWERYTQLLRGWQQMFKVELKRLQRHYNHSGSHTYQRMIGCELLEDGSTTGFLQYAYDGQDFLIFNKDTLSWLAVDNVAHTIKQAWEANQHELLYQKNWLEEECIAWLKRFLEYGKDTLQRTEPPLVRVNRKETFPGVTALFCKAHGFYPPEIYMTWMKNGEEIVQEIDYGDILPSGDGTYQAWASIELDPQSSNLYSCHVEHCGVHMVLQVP
T1 sequence (P61769 21-119 partner): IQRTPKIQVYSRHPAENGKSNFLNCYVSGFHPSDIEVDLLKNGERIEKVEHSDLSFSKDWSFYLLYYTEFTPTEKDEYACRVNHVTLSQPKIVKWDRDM

Cc1nc2c(=O)[nH]c(=O)nc-2n(C[C@H](O)[C@H](O)[C@H](O)CO)c1O [Compound 2, 7-hydroxy-6-methyl-8-D-ribityllumazine]
Activation of control Jurkat.LC13 line (Jurkat.LC13 line): failed to activate | Activation of Jurkat.MAIT cells (increase in surface CD69) (Jurkat.MAIT cells): activated | Activation of MAIT cells (CD69 upregulation, intracellular IFN-γ and TNF-α) [1]: specifically activated | Ability to refold MR1 into native MR1-β2m complex (MR1): could be refolded with MR1

Nc1nc2ncc(C=O)nc2c(=O)[nH]1 [Compound 6-FP, 6-formyl pterin, reference compound]
Activation of Jurkat.MAIT cells (increase in surface CD69) (Jurkat.MAIT cells): did not activate | Activation of MAIT cells (CD69 upregulation, intracellular IFN-γ and TNF-α) [1]: did not activate | Ability to refold MR1 into native MR1-β2m complex (MR1): indistinguishable from MR1 refolded with folic acid | Inhibitory effect on activation of Jurkat cells expressing a conventional T cell receptor [2]: no inhibitory effect

B1: mouse MR1-rRL-6-CH2OH tetramers: tetramers from mouse wild-type MR1-rRL-6-CH2OH (C-terminal cysteine) (protein, UniProt Q8HWB0 19-341; P01887 21-119, looked up)
Major histocompatibility …: RTHSLRYFRLAVSDPGPVVPEFISVGYVDSHPITTYDSVTRQKEPKAPWMAENLAPDHWERYTQLLRGWQQTFKAELRHLQRHYNHSGLHTYQRMIGCELLEDGSTTGFLQYAYDGQDFIIFNKDTLSWLAMDYVAHITKQAWEANLHELQYQKNWLEEECIAWLKRFLEYGRDTLERTEHPVVRTTRKETFPGITTFFCRAHGFYPPEISMTWMKNGEEIAQEVDYGGVLPSGDGTYQTWLSVNLDPQSNDVYSCHVEHCGRQMVLEAPRESGDILRVSTISGTTILIIALAGVGVLIWRRSQELKEVMYQPTQVNEGSSPS
Beta-2-microglobulin: IQKTPQIQVYSRHPPENGKPNILNCYVTQFHPPHIEIQMLKNGKKIPKVEMSDMSFSKDWSFYILAHTEFTPTETDTYACRVKHASMAEPKTVYWDRDM
modifications: rRL-6-CH2OH ligand; C-terminal cysteine; tetramer
Tetramer staining of MAIT TCR-BW hybridomas (MAIT TCR-BW hybridomas): stain | Tetramer staining of control BW cells (control BW cells): not
